Where two headings read alike, the source gives them in different places.

Data on three compounds can be found in US20110253633A1, “CATANIONIC VESICLES, PROCESS FOR PREPARING SAME AND APPLICATIONS THEREOF” (COMMISSARIAT A L'ENERGIE ATOMIQUE ET AUX ENERGIES ALT., priority 2008, published 2011).

The nature of data set [1]: Confocal microscopy of solutes with low internal pH vesicles. Type of data set: physicochemical. Particulars: for localisation of solute encapsulated during preparation: confocal microscopy after 7 days of dialysis; for waiting time before the vesicles absorb the solute spontaneously: vesicles prepared without addition of solute. On the procedure:
Optionally, solute to be encapsulated can be added. If the vesicles were prepared without addition of solute in the preceding stages, they are then able to absorb certain compounds present in solution, for example Rhodamine B or Rhodamine 6G. It is sufficient to add the solute and wait about ten minutes before the vesicles absorb the solute spontaneously.
The presence of vesicles in the solution is checked by confocal microscopy after labelling with Oregon Green 488: take about 100 mg of solution, and add 20 μL of a saturated aqueous solution of Oregon Green 488, diluted 10-fold. Observation by confocal microscopy is carried out according to the usual techniques. An image of the vesicles is obtained, with the positive walls marked with the negative stain (FIG. 2). The vesicles are well separated.
The presence of vesicles in the solution and encapsulation of Rhodamine 6G is checked by confocal microscopy according to the usual techniques. […] The same observation can be carried out after labelling with Oregon Green 488: to 20 μL of solution, add 10 μL of a saturated aqueous solution of Oregon Green 488, diluted 10-fold.
After 7 days of dialysis, withdraw the solution from the cassette using a syringe and store it at room temperature.
After 20 minutes, zones with high concentration of Rhodamine 6G are observed by confocal microscopy (FIG. 14).

The nature of data set [2]: Confocal microscopy of solutes with high internal pH vesicles. Format: physicochemical. Particulars: Example 11 vesicles, waiting time of one minute. On the procedure: The presence of vesicles in the solution is checked by confocal microscopy after adding Rhodamine 6G: take about 100 μL of solution, and add 10 μL of an aqueous solution of Rhodamine 6G at 10 μM. Observation by confocal microscopy is carried out according to the usual techniques.
The presence of vesicles in the solution is checked by confocal microscopy by adding Rhodamine 6G as described above.

Data set [3] in a line: Permeability to anions and degree of encapsulation (dialysis, fluorescence at 522 nm). Format: physicochemical. Particulars: of the initial Oregon Green. On the procedure: Stir at 50° C. for 72 hours.
The solution is made up to 3 mL by adding a solution of CTACl at 1.5 mM in a borate buffer solution at pH=9. The fluorescence emission at 522 nm with excitation at 502 nm is measured with a Varian Cary Eclipse fluorescence spectrometer for all the solutions prepared from each of the samples taken. The concentration of Oregon Green in each sample is proportional to the fluorescence emission to within an arbitrary factor that is not important for the measurement.
(FIG. 11). […] The ratio of the fluorescence measured from the initial solution to the fluorescence extrapolated to t=0 makes it possible to measure the degree of encapsulation. 60% of the initial Oregon Green is therefore encapsulated.

As to `CC/N=c1\cc2oc3cc(NCC)c(C)cc3c(-c3ccccc3C(=O)OCC)c-2cc1C.Cl` [Rhodamine 6G, Chloride of Rhodamine 6G], for the setting “initial concentration in the solution 1.5 mM”, the “concentration in the vesicles extrapolated to t=0” value is 500 µM. Also, the “permeability of the vesicles to Rhodamine 6G” value (not told) is listed as 8.1 10^−12 cm/s. The compound further registered a degree of encapsulation (of the initial Rhodamine 6G) of 30%. The “spontaneous encapsulation of solute added after dialysis” value in data set [1] (Example 12 vesicles, after 20 minutes) is “accumulated preferentially”. Also, in data set [1], the “localisation of solute encapsulated during preparation” value was “present inside the vesicles, and exclusively inside”; the “waiting time before the vesicles absorb the solute spontaneously” value is on record as “about ten”.

Consider `O=C(O)c1ccccc1-c1c2cc(F)c(=O)cc-2oc2cc(O)c(F)cc12` [Oregon Green], for which the “spontaneous encapsulation of solute added after dialysis” value in data set [2] is reported as “spontaneous encapsulation”. For the same compound, in data set [3], the degree of encapsulation is 60%. In data set [1] (Example 2 vesicles, excess of negative stain), the “penetration of stain added after dialysis” value is reported as “does not penetrate into the vesicles”.

Regarding `CCN(CC)c1ccc2c(-c3ccccc3C(=O)O)c3ccc(=[N+](CC)CC)cc-3oc2c1.[Cl-]` [Rhodamine B, Chloride of Rhodamine B], in data set [1], the “localisation of solute encapsulated during preparation” value is listed as “exclusively encapsulated inside the vesicles, not outside” and the “waiting time before the vesicles absorb the solute spontaneously” value is recorded as “about ten”.
